Reference: publication PMC9000864, “Pentacyclic Triterpenoids from Sabia discolor Dunn and Their α-Glycosidase Inhibitory Activities” (Molecules, 2022)

Target: α-glucosidase
Test: α-glucosidase inhibition assay (PNPG method)
Format: biochemical, saccharomyces cerevisiae
Settings: for IC50: absorbance at 405 nm, 37 °C, n = 3, read-out: α-glucosidase inhibitory activity IC50; for α-glycosidase inhibitory activity (in words): compared with positive control acarbose
Source text: Altogether, dimethyl sulfoxide (DMSO; Beijing Mr. Lai Treasure Company, Beijing, China); phosphate buffer solution (PBS; HyClone); centrifuge tubes, 96 cell culture plates, and other consumables (NEST Biotechnology Co. Ltd., Beijing, China); and α-glucosidase (Sigma Company, St. Louis, MO, USA) from saccharomyces cerevisiae were obtained for this study. […] The absorbance was read using a microplate reader (Varioskan LUX, Thermo, Waltham, MA, USA) at 405 nm. The results were obtained for at least three independent experiments. The inhibitory activity of α-glucosidase was determined by the PNPG method. […] Then, 20 μL of PNPG (2.5 mmol/L) was added, mixed by shock, and incubated in a 37 °C constant-temperature incubator for 15 min. Then, 80 μL of Na2CO3 […] solution was added to stop the reaction and the absorbance was measured by a microplate reader at 405 nm. […] Inhibition rate = [(OD negative − OD blank) − (OD sample − OD background)]/(OD negative − OD blank) × 100%.

Row | SMILES | IC50 [nM] | α-glycosidase inhibitory activity (in words)
1 | CC1=CCC2(C)CCC3(C)C(CCC4C5(C)CCC(O)C(C)(C)C5C(O)CC43C)C2C1C (stereo not drawn) [Compound 8, 6β-pseudotaraxasterol] | 230 ± 13.5 | more significant activity than the positive control
2 | C=C(C)[C@@H]1CC[C@]2(CO)CC[C@]3(C)C(CCC4[C@@]5(C)CC[C@H](O)C(C)(C)C5CC[C@]43C)C12 (some centres unmarked) [Compound 15, birch ester alcohol] | 90 ± 4.5 | best activity
3 | CC1(C)CC[C@]2(C)CC[C@]3(C)C(=CC=C4[C@]5(C)C(CC[C@]43C)C(C)(C)[C@@H](O)C[C@@H]5O)C2C1 (some centres unmarked) [Compound 3, juglangenin A] | 110 ± 22.2 | –
4 | CC1(C)CC[C@]2(CO)CC[C@]3(C)C(=CCC4[C@@]5(C)C(=O)C[C@@H](O)C(C)(C)C5CC[C@]43C)C2C1 (stereo partly drawn) [Compound 1, 3α, 28-dihydroxy-12-oleanene-l-one] | 270 ± 49.9 | more significant activity than the positive control
5 | CC1=CC[C@]2(C)CC[C@]3(C)C(CCC4[C@@]5(C)CCC(=O)C(C)(C)C5CC[C@]43C)C2[C@H]1C (some centres unmarked) [Compound 13, ψ-taraxasterone] | 260 ± 38.3 | –
6 | CC1CCC2(C)CCC3(C)C4CCC5C(C)(C)C(O)CCC5(C)C4(C)CCC3(O)C2C1C (stereo not drawn) [Compound 9, ursan-3β, 13β-diol] | 230 ± 30.7 | more significant activity than the positive control
7 | CC1=CCC2(C)CCC3(C)C(CCC4C5(C)C(O)CC(O)C(C)(C)C5CCC43C)C2C1C (stereo not drawn) [Compound 7, 20-taraxastene-1β, 3β -diol] | 560 ± 33.1 | –
